This assay deals with T1, recombinant full-length USP7 (Homo sapiens, UniProt Q93009).
T1 construct: A 25 μl reaction volume containing recombinant full-length USP7 (62 pM)
The experiment in a line: USP7-mediated ubiquitin-rhodamine cleavage assay. Type of assay: biochemical. The note with it: recombinant full-length USP7 62 pM, ubiquitin-rhodamine 100 nM, 1 hour reaction at room temperature. The gist of the method: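 After compound and enzyme (62 pM) sat together 30 min at RT, 100 nM fluorogenic ubiquitin-rhodamine substrate was added for 1 h protected from light. Acetic acid quenched the reaction prior to the fluorescence read.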

Setting [1] is: 30-minute incubation with compound, read-out: Potency: USP7 IC50.
Setting [2] is: 30-minute pre-incubation, read-out: Potency (USP7 IC50).

Counter-ions that a name gives are not always drawn. Like-named read-outs stand apart in the source and are kept apart here.

As a reminder, the IC50 is the concentration needed to halve the response being measured.

T1 sequence (Q93009 whole entry): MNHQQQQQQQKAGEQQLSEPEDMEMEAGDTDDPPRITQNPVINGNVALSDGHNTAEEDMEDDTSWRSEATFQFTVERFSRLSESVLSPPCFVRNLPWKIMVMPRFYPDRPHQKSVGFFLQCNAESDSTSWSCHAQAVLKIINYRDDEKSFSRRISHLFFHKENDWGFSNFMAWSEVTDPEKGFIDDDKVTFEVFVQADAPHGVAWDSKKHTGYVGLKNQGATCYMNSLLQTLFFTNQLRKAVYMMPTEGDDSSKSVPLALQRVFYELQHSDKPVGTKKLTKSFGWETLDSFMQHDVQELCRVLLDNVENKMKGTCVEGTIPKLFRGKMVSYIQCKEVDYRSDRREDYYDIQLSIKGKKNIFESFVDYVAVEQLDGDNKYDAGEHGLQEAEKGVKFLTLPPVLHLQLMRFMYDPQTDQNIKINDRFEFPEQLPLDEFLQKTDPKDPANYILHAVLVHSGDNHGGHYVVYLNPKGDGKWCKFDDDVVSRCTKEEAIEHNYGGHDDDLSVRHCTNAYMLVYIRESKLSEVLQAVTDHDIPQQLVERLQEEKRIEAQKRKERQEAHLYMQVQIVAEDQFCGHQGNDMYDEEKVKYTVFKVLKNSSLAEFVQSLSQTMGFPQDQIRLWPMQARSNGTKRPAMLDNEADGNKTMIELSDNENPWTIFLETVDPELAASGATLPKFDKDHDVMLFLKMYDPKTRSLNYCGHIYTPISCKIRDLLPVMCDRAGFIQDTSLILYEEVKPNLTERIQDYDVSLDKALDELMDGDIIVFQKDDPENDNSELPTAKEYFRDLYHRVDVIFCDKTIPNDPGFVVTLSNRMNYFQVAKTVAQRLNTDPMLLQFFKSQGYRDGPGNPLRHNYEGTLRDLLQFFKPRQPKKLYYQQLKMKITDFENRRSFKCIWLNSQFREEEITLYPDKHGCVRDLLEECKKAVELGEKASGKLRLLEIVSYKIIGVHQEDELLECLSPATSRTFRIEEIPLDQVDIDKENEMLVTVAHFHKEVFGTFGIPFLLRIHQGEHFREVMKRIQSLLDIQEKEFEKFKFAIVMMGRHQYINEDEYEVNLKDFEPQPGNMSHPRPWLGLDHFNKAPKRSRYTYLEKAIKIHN

Take `Cn1nc2c(c1C1Cc3cc(Cl)cc(-c4ccnc5cc(CN6C(=O)C7C(C6=O)C7(C)C)sc45)c3O1)CNCC2` [Example 387, 3-[[7-[(2R)-5-chloro-2-(2-methyl-4,5,6,7-tetrahydropyraozlo[4,3-c]pyridin-3-yl)-2,3-dihydrobenzofuran-7-yl]thieno[3,2-b]pyridin-2-yl]methyl]-6,6-dimethyl-3-azabicyclo[3.1.0]hexane-2,4-dione dihydrochloride]: under setting [1], the 50% inhibitory concentration (IC50) is under 1 µM. For `Cc1cc(Cl)cc(-c2ncnc3cc(Cn4c(=O)ccn(C(C)C)c4=O)sc23)c1O[C@H]1CCCN(C)C1` [Example 512, 3-[[4-[5-chloro-3-methyl-2-[[(3S)-1-methyl-3-piperidyl]oxy]phenyl]thieno[3,2-d]pyrimidin-6-yl]methyl]-1-isopropyl-pyrimidine-2,4-dione], the IC50 under setting [2] was under 1 µM. In the case of `CC(=O)N[C@H]1CNC[C@H]1Oc1c(C)cc(Cl)cc1-c1ccnc2cc(CN3C(=O)CCC3=O)sc12` [Example 85, N-((3S,4R)-4-(4-Chloro-2-(2-((2,5-dioxopyrrolidin-1-yl)methyl)thieno[3,2-b]pyridin-7-yl)-6-methylphenoxy)pyrrolidin-3-yl)acetamide], the IC50 under setting [1] fell in the range of 1 to 10 µM.

As for `Cc1cc(Cl)cc(-c2ccnc3cc(Cn4c(=O)ccn(CC(F)(F)F)c4=O)sc23)c1O[C@H]1C[C@@H]2NCCO[C@H]2C1` [Example 694, 3-[[7-[2-[[(4aS,6S,7aS)-2,3,4,4a,5,6,7,7a-octahydrocyclopenta[b][1,4]oxazin-6-yl]oxy]-5-chloro-3-methyl-phenyl]thieno[3,2-b]pyridin-2-yl]methyl]-1-(2,2,2-trifluoroethyl)pyrimidine-2,4-dione], the IC50 (30-minute incubation, read-out: Potency (USP7 IC50)) was under 1 µM. On to `Cc1cc(Cl)cc(-c2ccnc3cc(Cn4c(=O)ccn(C)c4=O)sc23)c1O[C@@H]1CN(CCO)C[C@@H]1F` [Example 467, 3-[[7-[5-chloro-2-[(3R,4S)-4-fluoro-1-(2-hydroxyethyl)pyrrolidin-3-yl]oxy-3-methyl-phenyl]thieno[3,2-b]pyridin-2-yl]methyl]-1-methyl-pyrimidine-2,4-dione; 2,2,2-trifluoroacetic acid], for which the IC50 under setting [2] was under 1 µM. Still for that read-out and setting: next, `Cc1cc(Cl)cc(-c2ccnc3cc(Cn4c(=O)ccn(C)c4=O)sc23)c1OC1CN2CCC1C2` [Example 530, 3-[[7-[2-[[(1R,3S,4S)-1-azabicyclo[2.2.1]heptan-3-yl]oxy]-5-chloro-3-methyl-phenyl]thieno[3,2-b]pyridin-2-yl]methyl]-1-methyl-pyrimidine-2,4-dione]: under 1 µM.

For `O=C1CNC(=O)N1Cc1cc2ncnc(-c3cccc(OC(F)(F)F)c3)c2s1` [Example 403, 3-[[4-[3-(trifluoromethoxy)phenyl]thieno[3,2-d]pyrimidin-6-yl]methyl]imidazolidine-2,4-dione], the half-inhibitory concentration (IC50) under setting [1] fell in the range of 1 to 10 µM. In the case of `Cc1cc(Cl)cc(-c2ccnc3cc(CN4C(=O)CC5(CCCC5)CC4=O)sc23)c1OC1CCNCC1` [Example 236, 8-((7-(5-Chloro-3-methyl-2-(piperidin-4-yloxy)phenyl)thieno[3,2-b]pyridin-2-yl)methyl)-8-azaspiro[4.5]decane-7,9-dione], the IC50 under setting [1] is under 1 µM. Turning to `Cc1cc(Cl)cc(-c2ccnc3cc(Cn4c(=O)ccn(CC(F)(F)F)c4=O)sc23)c1OC1C=CCNC1` (centres unmarked) [Example 631, 3-[[7-[5-chloro-3-methyl-2-(1,2,3,6-tetrahydropyridin-3-yloxy)phenyl]thieno[3,2-b]pyridin-2-yl]methyl]-1-(2,2,2-trifluoroethyl)pyrimidine-2,4-dione], the IC50 under setting [2] is under 1 µM. For `Cc1cc(Cl)cc(-c2ccnc3cc(CO)sc23)c1O[C@@H]1CC[C@H](N)C1` [Example 89, (7-(2-(((1R,3S)-3-Aminocyclopentyl)oxy)-5-chloro-3-methylphenyl)thieno[3,2-b]pyridin-2-yl)methanol], the IC50 under setting [1] fell in the range of 10 to 30 µM. `Cc1cc(Cl)cc(-c2ccnc3cc(Cn4c(=O)c(C)cn(C)c4=O)sc23)c1O[C@@H]1CNC[C@@H]1F` [Example 480, 3-[[7-[5-chloro-2-[(3R,4S)-4-fluoropyrrolidin-3-yl]oxy-3-methyl-phenyl]thieno[3,2-b]pyridin-2-yl]methyl]-1,5-dimethyl-pyrimidine-2,4-dione]: under setting [2], the half-maximal inhibitory concentration (IC50) was under 1 µM. On to `Cc1cc(Cl)cc(-c2ccnc3cc(CO)sc23)c1OC1CCC12CNC2` (centres unmarked) [Example 49, (7-(2-((2-Azaspiro[3.3]heptan-5-yl)oxy)-5-chloro-3-methylphenyl)thieno[3,2-b]pyridin-2-yl)methanol], for which, under setting [1], the IC50 lay in the range of 1 to 10 µM. For the compound `Cc1cc(Cl)cc(-c2ccnc3cc(CN4C(=O)CCC4=O)sc23)c1O[C@@H]1CNCC[C@H]1C` [Example 415, 1-[[7-[5-chloro-3-methyl-2-[[(3S,4R)-4-methyl-3-piperidyl]oxy]phenyl]thieno[3,2-b]pyridin-2-yl]methyl]pyrrolidine-2,5-dione], the half-maximal inhibitory concentration (IC50) under setting [2] was under 1 µM. Consider `Cc1cc(Cl)cc(-c2ccnc3cc(CN4C(=O)CC(C)(C)C4=O)sc23)c1O[C@H]1CCCNC1` [Example 313, 1-[[7-[5-chloro-3-methyl-2-[[(3S)-3-piperidyl]oxy]phenyl]thieno[3,2-b]pyridin-2-yl]methyl]-3,3-dimethyl-pyrrolidine-2,5-dione; 2,2,2-trifluoroacetic acid], for which the IC50 under setting [1] was under 1 µM.

As for `CCC(O)c1cc2nccc(-c3cc(Cl)cc(C)c3OC3CCNCC3)c2s1` (centres unmarked) [Example 261, 1-(7-(5-Chloro-3-methyl-2-(piperidin-4-yIoxy)phenyl)thieno[3,2-b]pyridin-2-yl)propan-1-ol], the concentration for half-maximal inhibition (IC50) under setting [1] was 1 to 10 µM.

Regarding `Cc1cc(Cl)cc(-c2ccnc3cc(CN4C(=O)CCCC4C(F)(F)F)sc23)c1O[C@@H]1CNC[C@@H]1F` (stereo partly drawn) [Example 103, 1-((7-(5-Chloro-2-(((3R,4S)-4-fluoropyrrolidin-3-yl)oxy)-3-methylphenyl)thieno[3,2-b]pyridin-2-yl)methyl)-6-(trifluoromethyl)piperidin-2-one], the concentration for half-maximal inhibition (IC50) under setting [1] is 1 to 10 µM. Take `CO[C@H]1CNC[C@H]1Oc1c(C)cc(Cl)cc1-c1ccnc2cc(Cn3c(=O)ccn(CC(F)(F)F)c3=O)sc12` [Example 655, 3-[[7-[5-chloro-2-[(3R,4S)-4-methoxypyrrolidin-3-yl]oxy-3-methyl-phenyl]thieno[3,2-b]pyridin-2-yl]methyl]-1-(2,2,2-trifluoroethyl)pyrimidine-2,4-dione]: the half-maximal inhibitory concentration (IC50) under setting [2] was under 1 µM. Turning to `Cc1cc(C#N)cc(-c2ccnc3cc(CN4C(=O)CCC4=O)sc23)c1OCC1(C)CNC1` [Example 46, 3-(2-((2,5-Dioxopyrrolidin-1-yl)methyl)thieno[3,2-b]pyridin-7-yl)-5-methyl-4-((3-methylazetidin-3-yl)methoxy)benzonitrile], the IC50 under setting [1] is under 1 µM.

In the case of `CC[C@@H]1C[C@H](Oc2c(C)cc(Cl)cc2-c2ccnc3cc(Cn4c(=O)ccn(CC(F)(F)F)c4=O)sc23)CCN1` [Example 636, 3-[[7-[5-chloro-2-[[(2R,4R)-2-ethyl-4-piperidyl]oxy]-3-methyl-phenyl]thieno[3,2-b]pyridin-2-yl]methyl]-1-(2,2,2-trifluoroethyl)pyrimidine-2,4-dione], under setting [2], the half-maximal inhibitory concentration (IC50) is under 1 µM. On the same count and under the same terms, next, `Cc1cc(Cl)cc(-c2ccnc3cc(Cn4c(=O)ccn(C)c4=O)sc23)c1OC1CC2CC1CN2` (centres unmarked) [Example 476, 3-[[7-[2-(2-azabicyclo[2.2.1]heptan-5-yloxy)-5-chloro-3-methyl-phenyl]thieno[3,2-b]pyridin-2-yl]methyl]-1-methyl-pyrimidine-2,4-dione; 2,2,2-trifluoroacetic acid]: under 1 µM; `Cc1cc(Cl)cc(-c2ncnc3cc(Cn4c(=O)ccn(CC(F)(F)F)c4=O)sc23)c1O[C@H]1CC[C@](C)(N)C1` [Example 586, 3-[[4-[2-[(1S,3S)-3-amino-3-methyl-cyclopentoxy]-5-chloro-3-methyl-phenyl]thieno[3,2-d]pyrimidin-6-yl]methyl]-1-(2,2,2-trifluoroethyl)pyrimidine-2,4-dione; 2,2,2-trifluoroacetic acid]: under 1 µM; `Cc1cc(Cl)cc(-c2ccnc3cc(Cn4c(=O)c(F)cn(C(C)C)c4=O)sc23)c1O[C@@H]1CCNC[C@@H]1C` [Example 550, 3-[[7-[5-chloro-3-methyl-2-[[(3S,4R)-3-methyl-4-piperidyl]oxy]phenyl]thieno[3,2-b]pyridin-2-yl]methyl]-5-fluoro-1-isopropyl-pyrimidine-2,4-dione]: under 1 µM. Still for that read-out and setting: next, `CCN1CC2CC(Oc3c(C)cc(Cl)cc3-c3ccnc4cc(Cn5c(=O)ccn(C)c5=O)sc34)C1C2` (centres unmarked) [Example 466, 3-[[7-[5-chloro-2-[(3-ethyl-3-azabicyclo[2.2.1]heptan-5-yl)oxy]-3-methyl-phenyl]thieno[3,2-b]pyridin-2-yl]methyl]-1-methyl-pyrimidine-2,4-dione]: under 1 µM.

For the compound `CCN1C[C@H](F)[C@H](Oc2c(C)cc(Cl)cc2-c2ccnc3cc(CN4C(=O)C5CC5C4=O)sc23)C1` (stereo partly drawn) [Example 310, 3-[[7-[5-chloro-2-[(3R,4S)-1-ethyl-4-fluoro-pyrrolidin-3-yl]oxy-3-methyl-phenyl]thieno[3,2-b]pyridin-2-yl]methyl]-3-azabicyclo[3.1.0]hexane-2,4-dione], under setting [1], the IC50 was under 1 µM. Still for that read-out and setting: next, `Cc1cc(Cl)cc(-c2ccnc3ccsc23)c1OC1CCCCNC1` (centres unmarked) [Example 264, 7-(2-(Azepan-3-yloxy)-5-chloro-3-methylphenyl)thieno[3,2-b]pyridine]: 10 to 30 µM. On to `Cc1cc(Cl)cc(-c2ncnc3cc(CN4C(=O)C5C(C4=O)C5(C)C)sc23)c1O[C@@H]1CNC[C@@H]1C` (stereo partly drawn) [Example 349, 3-[[4-[5-chloro-3-methyl-2-[(3S,4S)-4-methylpyrrolidin-3-yl]oxy-phenyl]thieno[3,2-d]pyrimidin-6-yl]methyl]-6,6-dimethyl-3-azabicyclo[3.1.0]hexane-2,4-dione], for which the IC50 under setting [1] is under 1 µM.
